What was measured:
[1] = test system: SREBP; test: Reporter Screening Assay (SRE-luciferase reporter, HepG2); assay type: cell-based; conditions: Homo sapiens; SRE-luciferase reporter HepG2 cells, 24 hours, 0.01 uM to 10 uM; read-out: I: Reporter Screening Assay (Ave EC50 (nM))
Protocol: Reporter Screening Assay: This assay was used to evaluate the effect on transcriptional activity SREBP of selected compounds using an SRE-luciferase reporter construct. On day 1, 10,000 cells were seeded in a 96 well (white) plate as per the plate map in Growth media without antibiotics. Cells were incubated at 37° C. for 8 hours. After 8 hours, cells were washed with DPBS for complete removal of FBS. DPBS was completely removed and Growth media was replaced with phenol free treatment medium (90 μl) with different FBS concentrations. The cells were then incubated at 37° C. for 24 hours with varying doses (0.01 uM to 10 uM) of compounds. Then a Luciferase assay was performed.
Reagents for performing Luciferase assay were stored at −20° C. To a tube of lyophilized assay substrate was added 1 mL Substrate Solvent and mixed well. The Substrate tube after reconstitution was covered with aluminum foil so as to keep it protected from light. The assay buffer was thawed to room temperature. To 20 mL Assay Buffer was added 200 μL of reconstituted 100× Substrate and mixed well. The reconstituted substrate as well as the assay solution (buffer+substrate) was protected from light throughout the procedure by keeping it covered with aluminum foil. Using a multi-channel pipette, 100 μL Assay Solution (buffer+substrate) was added directly to each sample well in Plate 1, which was incubated for 30 min (plate was covered with aluminum foil). After 30 min incubation, the plate was read for total luminescence. Each well was read for 2 seconds in a plate luminometer. (Microplate reader Envision Microplate reader from Perkin Elmer). Precaution was taken to incubate plate exactly for 30 min prior to reading on the plate reader.
SREBPv1 Reporter cell line: HepG2—#32251. Growth Medium: MEM (Corning 10-010), 10% FBS, 1% GlutaMax (Invitrogen Catalog #35050061), […] (Invitrogen Catalog # A1113803) and 1% Penicillin-Streptomycin (Pen-Strep). Treatment Media: Phenol-free MEM (Invitrogen Catalog #51200-038) and 1% GlutaMax (Invitrogen Catalog #35050061). Luciferase Assay: LightSwitch Luciferase Assay Kit (Catalog #32032). LDH assay: Pierce LDH Cytotoxicity Assay Kit (Catalog # SD249616).

[2] = Stability in mouse liver microsomes; assay type: in vitro ADME
Protocol: (§1) Compounds were evaluated for stability in human liver microsomes. A 10 mM stock solution of the compound being evaluated was prepared in DMSO and diluted with water:acetonitrile (1:1) to a concentration of 1 mM. A working concentration of 100 μM was prepared by further dilution with water:acetonitrile (1:1). To make the preincubation mixture, 2.5 μL of the diluted compound was combined with 75 μL of human liver microsomes at 3.33 mg/mL, and 85 μL of 100 mM potassium phosphate buffer, and this mixture was pre-incubated for 10 min at 37° C. To make the 60 minute mixture without cofactor, 32.5 μL of the preincubation mixture was combined with 17.5 μL of 100 mM potassium phosphate buffer and incubated for 60 min at 37° C. To make the 0 min sample with cofactor (NADPH), 16.25 μL of the preincubation mixture was combined with 200 μL of acetonitrile containing internal standard and 8.75 μL of cofactor (NADPH). To make the incubation mixture, 62 μL of cofactor (2.85 mM) was combined with the remaining incubation mixture, and incubated for 60 min at 37° C. To prepare the sample mixture to be evaluated, 25 μL incubation mixture was combined with 200 μL of acetonitrile containing internal standard and vortexed for 5 min at 1200 rpm, then centrifuged for 10 min at 4000 rpm. The supernatant was diluted 2 fold with water and injected on LC-MS/MS. The sample mixture was evaluated by LC-MS/MS using 10 mM ammonium acetate with 0.100 FA as the aqueous mobile phase, and methanol as the organic mobile phase.
Half-Life Mouse Microsomes:
Compounds were evaluated in mouse liver microsomes following a similar procedure as described above for human liver microsomes. A similar procedure could be used to evaluate compounds in rat liver microsomes.

[3] = Stability in human liver microsomes; assay type: in vitro ADME; conditions: 37° C., NADPH
Protocol: Half-Life Human Microsomes:
as §1

Row | Compound | EC50 [1] | percent parent remaining after 60 min in liver microsomes [2] | percent of compound remaining after 60 min in human liver microsomes [3]
1 | CC(C)(C)c1cc(-c2csc(-c3ccc(NC(=O)NC4CCC(O)CC4)cc3Cl)c2)ccn1 (stereo not drawn) [Compound I-8742, 1-(4-(4-(2-(tert-butyl)pyridin-4-yl)thiophen-2-yl)-3-chlorophenyl)-3-(4-hydroxycyclohexyl)urea] | > 500 nM | +++ (>60.1 = +++) | +++ (>60.1 = +++)
2 | CC(C)(C)c1cc(-c2csc(-c3ccc(NC(=O)OCCN4CCCC4)cc3Cl)c2)ccn1 [Compound I-8762, 2-(pyrrolidin-1-yl)ethyl (4-(4-(2-(tert-butyl)pyridin-4-yl)thiophen-2-yl)-3-chlorophenyl)carbamate] | > 500 nM | + (0-30 = +) | +++ (>60.1 = +++)
3 | CN(c1ccc(-c2cc(-c3ccnc(C4CC4)c3)cs2)c(Cl)c1)S(C)(=O)=O [Compound I-9037, N-(3-chloro-4-(4-(2-cyclopropylpyridin-4-yl)thiophen-2-yl)phenyl)-N-methylmethanesulfonamide] | < 249 nM | +++ (>60.1 = +++) | +++ (>60.1 = +++)
4 | CC(C)(C)c1cc(-c2csc(-c3ccc(S(=O)(=O)CC4CCCC4)cc3)c2)ccn1 [Compound I-8729, 2-(tert-butyl)-4-(5-(4-((cyclopentylmethyl)sulfonyl)phenyl)thiophen-3-yl)pyridine] | > 500 nM | + (0-30 = +) | + (0-30 = +)
5 | CC(C)(CO)c1cc(-c2csc(-c3ccc(NC(=O)N4CCC(O)CC4)cc3Cl)c2)ccn1 [Compound I-8926, N-(3-chloro-4-(4-(2-(1-hydroxy-2-methylpropan-2-yl)pyridin-4-yl)thiophen-2-yl)phenyl)-4-hydroxypiperidine-1-carboxamide] | < 249 nM | +++ (>60.1 = +++) | ++ (30.1-60 = ++)
6 | CC(C)(C)c1cc(-c2csc(-c3ccc(NC(=O)NC4CCNCC4)cc3Cl)c2)ccn1 [Compound I-8755, 1-(4-(4-(2-(tert-butyl)pyridin-4-yl)thiophen-2-yl)-3-chlorophenyl)-3-(piperidin-4-yl)urea] | > 500 nM | +++ (>60.1 = +++) | +++ (>60.1 = +++)
7 | CC(C)(O)Cc1cc(-c2cc(-c3ccc(NS(C)(=O)=O)cc3Cl)sc2F)ccn1 [Compound I-9085, N-(3-chloro-4-(5-fluoro-4-(2-(2-hydroxy-2-methylpropyl)pyridin-4-yl)thiophen-2-yl)phenyl)methanesulfonamide] | > 500 nM | +++ (>60.1 = +++) | +++ (>60.1 = +++)
8 | CN(C(=O)OC1CC1)c1ccc(-c2cc(-c3ccnc(C4CC4)c3)cs2)c(Cl)c1 [Compound I-9038, cyclopropyl (3-chloro-4-(4-(2-cyclopropylpyridin-4-yl)thiophen-2-yl)phenyl)(methyl)carbamate] | < 249 nM | +++ (>60.1 = +++) | +++ (>60.1 = +++)
9 | CC(C)(CO)c1cc(-c2csc(-c3ccc(NC(=O)OC4CC4)cc3Cl)c2)ccn1 [Compound I-8918, Cyclopropyl (3-chloro-4-(4-(2-(1-hydroxy-2-methylpropan-2-yl)pyridin-4-yl)thiophen-2-yl)phenyl)carbamate] | 250 to 500 nM | ++ (30.1-60 = ++) | +++ (>60.1 = +++)
10 | CC(C)NS(=O)(=O)Nc1ccc(-c2csc(-c3ccnc(C(C)(C)CO)c3)c2)c(Cl)c1 [Compound I-9162, 2-(4-(4-(2-chloro-4-(((isopropylamino)thio)amino)phenyl)thiophen-2-yl)pyridin-2-yl)-2-methylpropan-1-ol, S,S-dioxide] |  | +++ (>60.1 = +++) | + (0-30 = +)
11 | CS(=O)(=O)Nc1ccc(-c2cc(-c3ccnc(O[C@@H]4CCC[C@@H]4O)c3)cs2)c(Cl)c1 [Compound I-9111, N-(3-chloro-4-(4-(2-(((1R,2S)-2-hydroxycyclopentyl)oxy)pyridin-4-yl)thiophen-2-yl)phenyl)methanesulfonamide] |  | +++ (>60.1 = +++) | +++ (>60.1 = +++)

Results, then the compound that gave them:

Row | EC50 [1] | percent parent remaining after 60 min in liver microsomes [2] | percent of compound remaining after 60 min in human liver microsomes [3] | Compound
12 | < 249 nM | +++ (>60.1 = +++) | ++ (30.1-60 = ++) | CN(C(=O)OC1CC1)c1ccc(-c2cc(-c3ccnc(C4(CO)CC4)c3)cs2)c(Cl)c1 [Compound I-9042, Cyclopropyl (3-chloro-4-(4-(2-(1-(hydroxymethyl)cyclopropyl)pyridin-4-yl)thiophen-2-yl)phenyl)(methyl)carbamate]
13 | < 249 nM | ++ (30.1-60 = ++) | ++ (30.1-60 = ++) | CC(C)NS(=O)(=O)Nc1ccc(-c2cc(-c3ccnc(C(C)(C)CO)c3)cs2)c(Cl)c1 [Compound I-8941]
14 | < 249 nM | ++ (30.1-60 = ++) | + (0-30 = +) | CC(C)(CO)c1cc(-c2csc(-c3ccc(NS(=O)(=O)C(F)(F)F)cc3Cl)c2)ccn1 [Compound I-8940, N-(3-chloro-4-(4-(2-(1-hydroxy-2-methylpropan-2-yl)pyridin-4-yl)thiophen-2-yl)phenyl)-1,1,1-trifluoromethanesulfonamide]
15 |  | ++ (30.1-60 = ++) | ++ (30.1-60 = ++) | CC(C)(CO)c1cc(-c2cc(-c3ccc(NC(=O)OC4CC4)cc3Cl)cs2)ccn1 [Compound I-9161, Cyclopropyl(3-chloro-4-(5-(2-(1-hydroxy-2-methylpropan-2-yl)pyridin-4-yl)thiophen-3-yl)phenyl)carbamate]
16 |  | +++ (>60.1 = +++) | ++ (30.1-60 = ++) | CS(=O)(=O)Nc1ccc(-c2cc(-c3ccnc(OCC4COCCO4)c3)cs2)c(Cl)c1 (stereo not drawn) [Compound I-9113, N-(4-(4-(2-((1,4-dioxan-2-yl)methoxy)pyridin-4-yl)thiophen-2-yl)-3-chlorophenyl)methanesulfonamide]
17 |  | ++ (30.1-60 = ++) | ++ (30.1-60 = ++) | O=S(=O)(Nc1ccc(-c2cc(-c3ccnc(C4(CO)CC4)c3)cs2)c(Cl)c1)NC1CC1 [Compound I-9090]
18 |  | +++ (>60.1 = +++) | +++ (>60.1 = +++) | CS(=O)(=O)Nc1ccc(-c2cc(-c3ccnc(OCCC4(O)COC4)c3)cs2)c(Cl)c1 [Compound I-9112, N-(3-chloro-4-(4-(2-(2-(3-hydroxyoxetan-3-yl)ethoxy)pyridin-4-yl)thiophen-2-yl)phenyl)methanesulfonamide]

From patent US20220056018A1, “SREBP INHIBITORS COMPRISING A THIOPHENE CENTRAL RING” (Capulus Therapeutics, LLC, priority 2019, published 2022)
